These results are taken from PMC11032351, “Epigenetic modulation through BET bromodomain inhibitors as a novel therapeutic strategy for progranulin-deficient frontotemporal dementia” (Scientific Reports, 2024).

Common to all, as to type: binding
Experiment [1] deals with T1, Endogenous BRD4 (HEK293T) (Homo sapiens, UniProt O60885).
T1 construct: target engagement toward endogenous BRD4 derived from cellular lysates of cell types of interest; endogenous in cells; host or cells: HEK293T
The experiment can be described thus: CoraFluor TR-FRET ligand displacement, endogenous BRD4 in HEK293T lysate. The conditions noted are these: with 95% confidence interval, read-out: Endogenous BRD4 (HEK293T), KD,app. The protocol:
A cell pellet from one 15 cm dish (~ 25 M cells) of HEK293T cells, or from one confluent T-75 flask 8330-8 NPC cells (~ 9 M cells), was allowed to thaw on ice and cells were suspended in 400 μL lysis buffer (25 mM HEPES, 150 mM NaCl, 0.2% (v/v) Triton X-100, 0.02% (v/v) TWEEN-20, pH 7.5 supplemented with 2 mM DTT and one Roche cOmplete, Mini, EDTA-free protease inhibitor cocktail tablet (Sigma 11,836,170,001) per 7 mL. Cells were homogenized via passage through a 27.5-gauge needle 5 times, and the resulting mixture was incubated with slow, end-over-end mixing at 4 °C for 15 min. The lysate was clarified via centrifugation at 16,100 × g for 10 min at 4 °C then 800 μL (1:3 dilution) dilution buffer (25 mM HEPES, 150 mM NaCl, 0.005% (v/v) TWEEN-20, pH 7.5) was added and the lysate was re-clarified at 16,100 × g for 10 min at 4 °C. Total protein was quantified via detergent-compatible Bradford assay (ThermoFisher 23,246). The lysate was used fresh or flash-frozen in liquid nitrogen and stored at − 80 °C in single-use aliquots.
(§1) Unless otherwise noted, experiments were performed in white, 384-well microtiter plates (Corning 3572 or PerkinElmer ProxiPlate-384 Plus) in 30 μL or 10 μL assay volume, respectively. TR-FRET measurements were acquired on a Tecan SPARK plate reader with SPARKCONTROL software version V2.1 (Tecan Group Ltd.), with the following settings: 340/50 nm excitation, 490/10 nm (Tb), 520/10 nm (FITC) emission, 100 μs delay, and 400 μs integration. The 490/10 and 520/10 nm emission channels were acquired with a 50% mirror and a dichroic 510 mirror, respectively, using independently optimized detector gain settings unless specified otherwise. The TR-FRET ratio was taken as the 520/490 nm intensity ratio on a per-well basis.
For the profiling of endogenous BRD4, cell lysates as prepared above were diluted to 0.8 mg/mL total protein in 1:3 lysis buffer:dilution buffer with 0.5 nM rabbit anti-BRD4 antibody (Cell Signaling Technology; E2A7X) and 1 nM CoraFluor-1-labeled anti-rabbit Nano-Secondary (ChromoTek CTK0101). JQ1-FITC was added in serial dilution (cmax = 200 nM) using an HP D300 digital dispenser and allowed to equilibrate for 2 h at room temperature before TR-FRET measurements were taken. Nonspecific signal was determined with 50 μM JQ1-Acid, and data were fitted to a One Site–Specific Binding model in Prism 9. The KD,app determined from the one-site model was then adjusted for a two-site model using Eq. 1.
(§2) The following assay parameters have been used: (i) 4 nM GST-BRD4(BD1), 4 nM CoraFluor-labeled GST VHH, 20 nM JQ1-FITC in assay buffer, (ii) 4 nM GST-BRD4(BD2), 4 nM CoraFluor-labeled GST VHH, 20 nM JQ1-FITC in assay buffer, (iii) HEK293T or NPC cell lysate at 0.8 mg/mL total protein, 1 nM rabbit anti-BRD4 antibody, 2 nM CoraFluor-labeled anti-rabbit Nano-Secondary, 20 nM JQ1-FITC. For all experiments, test compounds were added in serial dilution (cmax = 10 μM) using an HP D300 digital dispenser and allowed to equilibrate for 2 h at room temperature before TR-FRET measurements were taken. The assay floor (background) was defined with the 10 μM mivebresib dose, and the assay ceiling (top) was defined via a no-inhibitor control. Data were fitted to a four-parameter dose–response model in Prism 9.
(§3) For TR-FRET ligand displacement assays with recombinant bromodomains, we have determined the KD of the respective fluorescent tracer (JQ1-FITC) under each assay condition. For endogenous BRD4 in whole cell extract, we have determined the KD,app of JQ1-FITC under each assay condition. Inhibitor KD and KD,app values have been calculated using Cheng-Prusoff principles, outlined in Eq. 2 below:2 KDorKD,app=IC50/1+[S]/KX where IC50 is the measured IC50 value, [S] is the concentration of fluorescent tracer, and KX is the KD or KD,app of the fluorescent tracer for a given condition.
(TR-FRET usually uses a lanthanide donor and a delayed reading to cut background.)

In a further experiment the target is T2, Recombinant BRD4(BD1) (Homo sapiens, UniProt O60885).
T2 construct: using the recombinant, individually purified bromodomains of BRD4 (GST-tagged BD1 and BD2); purchased BPS Biosciences, Inc 31,040
The experiment can be described thus: TR-FRET ligand displacement, recombinant GST-BRD4(BD1). The note with it: for Kd: GST-tagged, with 95% confidence interval. The protocol:
as §1
(§4) Assays were performed as described. Recombinant BRD4(BD1) and BRD4(BD2) were purchased from BPS Biosciences, Inc and Epicypher, Inc (GST-BRD4(BD1), 31,040; GST-BRD4(BD2), 15–0013, respectively). Recombinant bromodomains were diluted to 0.5 nM in assay buffer (25 mM HEPES, 150 mM NaCl, 0.5 mg/mL BSA, 0.005% TWEEN-20, pH 7.5) with 2 nM CoraFluor-1-labeled GST VHH (ChromoTek ST-250), then JQ1-FITC was added in serial dilution (cmax = 100 nM) using an HP D300 digital dispenser and allowed to equilibrate for 2 h at room temperature before TR-FRET measurements were taken. Nonspecific signal was determined with 50 μM JQ1-Acid, and data were fitted to a One Site–Specific Binding model in Prism 9. The KD determined from the one-site model was then used in Eq. 1 to adjust for a two-site model due to the dimeric GST protein:1 KD,2-site=KD,1-site×(1+2)
as §2, §3

A further experiment has as its target T3, Recombinant BRD4(BD2) (Homo sapiens, UniProt O60885).
T3 construct: using the recombinant, individually purified bromodomains of BRD4 (GST-tagged BD1 and BD2); purchased Epicypher, Inc 15–0013
The experiment can be described thus: TR-FRET ligand displacement, recombinant GST-BRD4(BD2). The note with it: GST-tagged, with 95% confidence interval. The protocol: as §1, §4, §2, §3

On to `Cn1ccc2c(-c3cccnc3Nc3ccc(F)cc3)c[nH]c2c1=O` [Compound 85B, 3-(2-((4-fluorophenyl)amino)pyridin-3-yl)-6-methyl-1,6-dihydro-7H-pyrrolo[2,3-c]pyridin-7-one], for which the Kd in experiment [1] is 3910 nM; at Recombinant BRD4(BD1), 951 nM; at Recombinant BRD4(BD2), 2740 nM.

Consider `Cn1ccc2c(-c3cccnc3Oc3ccc(F)cc3)c[nH]c2c1=O` [Compound 18B, 3-[2-(4-fluorophenoxy)pyridin-3-yl]-6-methyl-1,6-dihydro-7H-pyrrolo[2,3-c]pyridin-7-one], for which the results for the Kd (in experiment [1]; on Recombinant BRD4(BD1); at Recombinant BRD4(BD2)) were 121 nM, 46 nM and 158 nM, respectively.

As for `Cn1cc(-c2cc(F)cnc2Oc2ccc(F)cc2)c2cc[nH]c2c1=O` [Compound 86A, 4-(5-fluoro-2-(4-fluorophenoxy)pyridin-3-yl)-6-methyl-1,6-dihydro-7H-pyrrolo[2,3-c]pyridin-7-one], the Kd in experiment [1] worked out at 559 nM; on Recombinant BRD4(BD1), 168 nM; on Recombinant BRD4(BD2), 324 nM.

As for `Cn1cc(-c2cccnc2Oc2cc(F)cc(F)c2)c2cc[nH]c2c1=O` [Compound 82A, 4-(2-(3,5-difluorophenoxy)pyridin-3-yl)-6-methyl-1,6-dihydro-7H-pyrrolo[2,3-c]pyridin-7-one], the values for the Kd (in experiment [1]; at Recombinant BRD4(BD1); at Recombinant BRD4(BD2)) were 49 nM, 41 nM and 30 nM, respectively.

As for `Cn1ccc2c(-c3cccnc3Sc3ccc(F)cc3)c[nH]c2c1=O` [Compound 84B, 3-(2-((4-fluorophenyl)thio)pyridin-3-yl)-6-methyl-1,6-dihydro-7H-pyrrolo[2,3-c]pyridin-7-one], the Kd is 196 nM in experiment [1], 43 nM on Recombinant BRD4(BD1) and 133 nM on Recombinant BRD4(BD2).

Take `Cn1ccc2c(-c3cc(F)cnc3Oc3ccc(F)cc3)c[nH]c2c1=O` [Compound 86B, 3-(5-fluoro-2-(4-fluorophenoxy)pyridin-3-yl)-6-methyl-1,6-dihydro-7H-pyrrolo[2,3-c]pyridin-7-one]: the Kd in experiment [1] is 7150 nM; on Recombinant BRD4(BD1), 2640 nM; at Recombinant BRD4(BD2), 3710 nM.

`Cn1cc(-c2cccnc2Nc2ccc(F)cc2)c2cc[nH]c2c1=O` [Compound 85A, 4-(2-((4-fluorophenyl)amino)pyridin-3-yl)-6-methyl-1,6-dihydro-7H-pyrrolo[2,3-c]pyridin-7-one]: the Kd in experiment [1] worked out at 93 nM; on Recombinant BRD4(BD1), 76 nM; on Recombinant BRD4(BD2), 421 nM. Besides, the “selectivity for BD1 over BD2” value at Recombinant BRD4(BD1) (recombinant BRD4 BD1 vs BD2) is ~ 5.5 fold.

In the case of `Cn1cc(-c2cccnc2Sc2ccc(F)cc2)c2cc[nH]c2c1=O` [Compound 84A, 4-(2-((4-fluorophenyl)thio)pyridin-3-yl)-6-methyl-1,6-dihydro-7H-pyrrolo[2,3-c]pyridin-7-one], the Kd in experiment [1] was found to be 370 nM; on Recombinant BRD4(BD1) it was 303 nM; on Recombinant BRD4(BD2), 199 nM.

As for `Cn1cc(-c2cccnc2Oc2ccc(F)cc2)c2cc[nH]c2c1=O` [Compound 18A, 4-(2-(4-fluorophenoxy)pyridin-3-yl)-6-methyl-1H-pyrrolo[2,3-c]pyridin-7(6H)-one], the Kd in experiment [1] stood at 44 nM; at Recombinant BRD4(BD1), 28 nM; on Recombinant BRD4(BD2) it was 24 nM.

Take `Cn1cc(-c2cccnc2Oc2ccc(F)c(F)c2)c2cc[nH]c2c1=O` [Compound 81A, 4-(2-(3,4-difluorophenoxy)pyridin-3-yl)-6-methyl-1,6-dihydro-7H-pyrrolo[2,3-c]pyridin-7-one]: the Kd in experiment [1] worked out at 30 nM; on Recombinant BRD4(BD1), 29 nM; at Recombinant BRD4(BD2) it was 34 nM.

Take `Cn1ccc2c(-c3cccnc3Oc3cc(F)cc(F)c3)c[nH]c2c1=O` [Compound 82B, 3-(2-(3,5-difluorophenoxy)pyridin-3-yl)-6-methyl-1,6-dihydro-7H-pyrrolo[2,3-c]pyridin-7-one]: the Kd is 519 nM in experiment [1], 147 nM at Recombinant BRD4(BD1) and 332 nM on Recombinant BRD4(BD2).

Regarding `Cn1ccc2c(-c3cccnc3Oc3ccc(F)c(F)c3)c[nH]c2c1=O` [Compound 81B, 3-(2-(3,4-difluorophenoxy)pyridin-3-yl)-6-methyl-1,6-dihydro-7H-pyrrolo[2,3-c]pyridin-7-one], the results for the Kd (in experiment [1]; on Recombinant BRD4(BD1); at Recombinant BRD4(BD2)) were 538 nM, 126 nM and 375 nM, respectively.
